From ChEMBL document CHEMBL1201862, “PubChem BioAssay data set” (2004)
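A five-concentration, 48-hour dose response in 96-well plates underlies each endpoint, interpolated linearly between surrounding concentrations. The concentration for 50% growth inhibition is given as GI50.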 Active and inactive are the calls of the source. Cut-off read from the data, not from the text of the source: active = GI50 up to about 1.1 µM and inactive = higher.

Tests used:
Experiment in all cases: inhibition of tumour cell growth, NCI panel, 48 h
[1] = system: 786-0
[2] = system: CAKI-1
[3] = system: DU-145
[4] = system: HCT-15
[5] = system: HOP-92
[6] = system: IGROV-1
[7] = system: K562
[8] = system: KM12
[9] = system: LOX IMVI
[10] = system: MDA-MB-231
[11] = system: MDA-N
[12] = system: NCI-H226
[13] = system: NCI/ADR-RES
[14] = system: OVCAR-3
[15] = system: OVCAR-4
[16] = system: OVCAR-8
[17] = system: SF-539
[18] = system: SK-MEL-2
[19] = system: U-251
[20] = system: HL-60

SMILES | GI50 [1] | GI50 [2] | GI50 [3] | GI50 [4] [µM] | GI50 [5] | GI50 [6] | GI50 [7] | GI50 [8] | GI50 [9] | GI50 [10] | GI50 [11] | GI50 [12] | GI50 [13] | GI50 [14] | GI50 [15] | GI50 [16] | GI50 [17] | GI50 [18] | GI50 [19] | GI50 [20]
O=C1C2=Cc3ccccc3OC2(O)Oc2ccccc21 (configuration not stated) | > 100 µM (inactive) | > 100 µM (inactive) | > 100 µM (inactive) | > 100 | > 100 µM (inactive) | > 100 µM (inactive) | 57.8 µM (inactive) | > 100 µM (inactive) | > 100 µM (inactive) | > 100 µM (inactive) | > 100 µM (inactive) | > 100 µM (inactive) | > 100 µM (inactive) | 91.2 µM (inactive) | > 100 µM (inactive) | > 100 µM (inactive) | > 100 µM (inactive) | > 100 µM (inactive) | > 100 µM (inactive) | 
CCNC1=C(NC(=O)c2ccc(OC)cc2)C(=O)c2ccccc2C1=O | > 100 µM (inactive) |  | > 100 µM (inactive) | 48.4 | > 100 µM (inactive) | 72.1 µM (inactive) | > 100 µM (inactive) | 49.9 µM (inactive) |  | 92.9 µM (inactive) | 37.2 µM (inactive) | > 100 µM (inactive) | 29 µM (inactive) | 24 µM (inactive) | 34.7 µM (inactive) | 24.6 µM (inactive) | 56.8 µM (inactive) |  | > 100 µM (inactive) | 51.6 µM (inactive)
COc1cc2nc(-c3c(F)cccc3F)n(Cc3c(F)cccc3F)c2cc1Cc1c(F)cccc1F | > 100 µM (inactive) | 8.77 µM (inactive) | > 100 µM (inactive) | > 100 | 2.79 µM (inactive) | 0.292 µM (active) | > 28.6 µM (inactive) | 3.77 µM (inactive) | > 100 µM (inactive) | 27.7 µM (inactive) | > 100 µM (inactive) | > 28.6 µM (inactive) | > 100 µM (inactive) | 4.73 µM (inactive) | 1.84 µM (inactive) | > 100 µM (inactive) | > 68.7 µM (inactive) | > 49.8 µM (inactive) | > 100 µM (inactive) | 
CC(=O)Oc1cccc2c(/C=N/NC(N)=S)ncc(C)c12 | 0.322 µM (active) | 4.17 µM (inactive) | 0.347 µM (active) | 2.88 | 3.27 µM (inactive) | 2.99 µM (inactive) | 1.31 µM (inactive) | 0.895 µM (active) | 0.596 µM (active) | 2.58 µM (inactive) | 3.59 µM (inactive) | 2.96 µM (inactive) | 1.01 µM (active) | 0.381 µM (active) | 7.41 µM (inactive) | 0.463 µM (active) | 0.207 µM (active) | 5.94 µM (inactive) | 1.01 µM (active) | 0.931 µM (active)
C=C(C)C(=O)O[C@H]1[C@H]2[C@H](OC(=O)[C@H]2C)[C@H](O)[C@@H](C)[C@@H]2C=CC(=O)[C@]21C | 2.49 µM (inactive) | 2.55 µM (inactive) | 3.9 µM (inactive) | 2.04 | 3.66 µM (inactive) | 2.37 µM (inactive) |  | 2.51 µM (inactive) | 2.62 µM (inactive) | 4.54 µM (inactive) | 2.58 µM (inactive) | 8.57 µM (inactive) | 3.22 µM (inactive) | 4.52 µM (inactive) | 5.64 µM (inactive) | 1.94 µM (inactive) | 3.67 µM (inactive) | 4.13 µM (inactive) | 3.16 µM (inactive) | 0.692 µM (active)
CC(=O)OCc1cc(CCC(=O)NCCNc2c3ccccc3nc3ccccc23)cc(COC(C)=O)c1O[Si](C)(C)C(C)(C)C | 8.81 µM (inactive) |  | 12.1 µM (inactive) | 14.4 | 4.89 µM (inactive) | 10.4 µM (inactive) | 2.65 µM (inactive) | 2.95 µM (inactive) | 1.95 µM (inactive) | 3.37 µM (inactive) | 5.85 µM (inactive) | 2.19 µM (inactive) | 20.7 µM (inactive) | 2 µM (inactive) | 6.19 µM (inactive) | 13.8 µM (inactive) | 2.59 µM (inactive) | 8.95 µM (inactive) | 4.88 µM (inactive) | 2.87 µM (inactive)
Cc1c(S(=O)(=O)N/C(N)=N/c2ccc(Cl)cc2)sc2ccc(Cl)cc12 | 17.1 µM (inactive) |  | 18.5 µM (inactive) | 19.4 | 22.6 µM (inactive) | 16.1 µM (inactive) | 36.2 µM (inactive) | 28.1 µM (inactive) | 20 µM (inactive) | 16 µM (inactive) | 20.1 µM (inactive) | 20.4 µM (inactive) | 19.5 µM (inactive) | 18.2 µM (inactive) | 22.2 µM (inactive) | 19.3 µM (inactive) | 23.9 µM (inactive) | 17.2 µM (inactive) | 16.3 µM (inactive) | 25.8 µM (inactive)
CC1=NN(c2cccc(S(=O)(=O)O)c2)C2(C1)C(Cl)C(=O)N2c1nc2ccccc2s1 (configuration not stated) | 5.56 µM (inactive) | 2.9 µM (inactive) | 11.3 µM (inactive) | 4.04 | 2.57 µM (inactive) | 1.66 µM (inactive) | 3.86 µM (inactive) | 9.23 µM (inactive) | 1.25 µM (inactive) | 8.73 µM (inactive) | 13.1 µM (inactive) | 5.82 µM (inactive) | 4.99 µM (inactive) | 2.94 µM (inactive) | 4.74 µM (inactive) | 5.65 µM (inactive) |  | 4 µM (inactive) | 5.85 µM (inactive) | 2.61 µM (inactive)
O=C(C#Cc1cn(C2CC(O)C(CO)O2)c(=O)[nH]c1=O)c1ccccc1 (configuration not stated) | 62.2 µM (inactive) | > 100 µM (inactive) | > 100 µM (inactive) | > 100 | 29.5 µM (inactive) | > 100 µM (inactive) |  | > 100 µM (inactive) | 49.8 µM (inactive) | > 100 µM (inactive) | 60.3 µM (inactive) | 70 µM (inactive) | 32.6 µM (inactive) | 21.1 µM (inactive) | 51.4 µM (inactive) | > 100 µM (inactive) | 23.2 µM (inactive) | > 100 µM (inactive) | > 100 µM (inactive) | 
COc1ccc(C2CC(c3ccc4ccccc4c3O)=NN2)cc1OC (configuration not stated) | 37.8 µM (inactive) | > 100 µM (inactive) | 77.6 µM (inactive) | 41.7 | > 100 µM (inactive) | 83.4 µM (inactive) | 21.7 µM (inactive) | 48.4 µM (inactive) |  | 25.2 µM (inactive) | 21 µM (inactive) | > 100 µM (inactive) | 32.7 µM (inactive) | 33.1 µM (inactive) | 92.7 µM (inactive) | 43.6 µM (inactive) | 31.3 µM (inactive) | 52 µM (inactive) | 44.1 µM (inactive) | 
CCN(CC)CCc1c2c(nc3ccccc13)C(=O)c1cccnc1C2=O | 2.07 µM (inactive) | 2.03 µM (inactive) | 0.344 µM (active) | 0.188 | 3.13 µM (inactive) | 1.74 µM (inactive) | 1.16 µM (inactive) | 0.857 µM (active) | 0.369 µM (active) | 1.83 µM (inactive) | 1.67 µM (inactive) | 4.68 µM (inactive) | 4.28 µM (inactive) | 0.055 µM (active) | 0.726 µM (active) | 3.52 µM (inactive) |  | 2.94 µM (inactive) | 2.88 µM (inactive) | 0.251 µM (active)
CCOC(=O)c1c(C)n(Cc2ccc(Cl)cc2Cl)c2c1cc(O)c1[nH]c3c(c12)CCCC3 | 30.1 µM (inactive) | 22.8 µM (inactive) | 36.4 µM (inactive) | 41.7 | 20.2 µM (inactive) | 24.9 µM (inactive) |  | 22.6 µM (inactive) | 33.5 µM (inactive) | 34.2 µM (inactive) | 21.2 µM (inactive) | 23.6 µM (inactive) | 18.8 µM (inactive) | 38 µM (inactive) | 17.1 µM (inactive) | 11.4 µM (inactive) | 24.1 µM (inactive) | 24 µM (inactive) | 37.8 µM (inactive) | < 0.01 µM (active)
CCC(C)C(NC(=O)C(CCCCN)NC(=O)C(NC(=O)C(CCC(N)=O)NC(=O)C(CCCNC(=N)N)NC(C)=O)C(C)CC)C(=O)NC(Cc1c[nH]c2ccccc12)C(=O)NC(Cc1ccccc1)C(=O)NC(CCC(N)=O)C(=O)NC(CC(N)=O)C(=O)NC(CCCNC(=N)N)C(=O)NC(CCCNC(=N)N)C(=O)NC(CCSC)C(=O)NC(CCCCN)C(=O)NC(Cc1c[nH]c2ccccc12)C(=O)NC(CCCCN)C(=O)NC(CCCCN)C(N)=O (configuration not stated) | 12 µM (inactive) | 35.5 µM (inactive) | > 50 µM (inactive) | > 50 | > 50 µM (inactive) | > 50 µM (inactive) | 22.8 µM (inactive) | 14.5 µM (inactive) | > 50 µM (inactive) | 14.3 µM (inactive) | > 50 µM (inactive) |  | > 50 µM (inactive) | 31.1 µM (inactive) | > 50 µM (inactive) | 49.2 µM (inactive) | 19.7 µM (inactive) | > 50 µM (inactive) | 17.8 µM (inactive) | > 50 µM (inactive)
Oc1cnnc2nc3ccccc3n12 | > 100 µM (inactive) | > 100 µM (inactive) | > 100 µM (inactive) | > 100 | > 100 µM (inactive) | > 100 µM (inactive) |  | > 100 µM (inactive) | 85.5 µM (inactive) | > 100 µM (inactive) | > 100 µM (inactive) | > 100 µM (inactive) | > 100 µM (inactive) |  | > 100 µM (inactive) | > 100 µM (inactive) | > 100 µM (inactive) | > 100 µM (inactive) | > 100 µM (inactive) | > 100 µM (inactive)
